Biological target: T1, complex I (mitochondrial electron transport system; multi-subunit)
T1 construct: gene Mtnd1; native complex I in freeze-fractured fragments of isolated skeletal muscle mitochondria
Assay: NADH oxidation (complex I activity) assay in mitochondrial fragments, dose-response
Type: biochemical, Mus musculus

For `CC(Sc1nc2ccccc2[nH]1)C(=O)N/N=C/c1cc(Br)ccc1O` (racemic) [KH7], the IC50 was 3.7 µM.
